Experimental data taken from patent US12428394B2, “2,4-disubstituted pyrimidine derivative, preparation method therefor and use thereof” (CHENGDU ZENITAR BIOMEDICAL TECHNOLOGY CO., LTD., priority 2019, dated 2025).

Test system: SET-2 cells (JAK2 V617F)
Experiment: Inhibition of cell proliferation by MTT experiment, SET-2
Type: cell-based
Settings: Homo sapiens, SET-2, 72 h, read-out: IC50 value on cell proliferation inhibition, SET-2 (V617F)
Summary of the method: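 MTT assay in MV4-11, MOLM-13 (FLT3-ITD) and SET-2 (JAK2 V617F) cells at 10,000–15,000 cells/well in IMDM with 10% FBS. Cells are exposed to compound for 72 h at 37 °C, then to MTT for 1–3 h. IC50 is fitted from inhibition rates across concentrations.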

Q: `Cc1cnc(Nc2ccc(N3CCC(N(C)CCO)CC3)c(F)c2)nc1-c1cnn(C(C)C)c1` [CLJ-44, 5-methyl-N-(3-fluoro-4-(4-N-hydroxyethyl-4-N-methylaminopiperidine-1-yl)phenyl)-4-(1-isopropyl-1H-pyrazole-4-yl) pyrimidine-2-amine] was tested. Which IC50 did it give?
A: 10 to 100 nM
